# Reference: article PMC8654920, “PET imaging of brain aromatase in humans and rhesus monkeys by ^11C-labeled cetrozole analogs” (Scientific Reports, 2021)
# pIC50: −log10 of the molar value.
# Biological target: T1, aromatase (Callithrix jacchus, UniProt Q95M61)
# T1 construct: gene CYP19A1; microsomal fraction of marmoset placenta
# T1 sequence (Q95M61 1-503): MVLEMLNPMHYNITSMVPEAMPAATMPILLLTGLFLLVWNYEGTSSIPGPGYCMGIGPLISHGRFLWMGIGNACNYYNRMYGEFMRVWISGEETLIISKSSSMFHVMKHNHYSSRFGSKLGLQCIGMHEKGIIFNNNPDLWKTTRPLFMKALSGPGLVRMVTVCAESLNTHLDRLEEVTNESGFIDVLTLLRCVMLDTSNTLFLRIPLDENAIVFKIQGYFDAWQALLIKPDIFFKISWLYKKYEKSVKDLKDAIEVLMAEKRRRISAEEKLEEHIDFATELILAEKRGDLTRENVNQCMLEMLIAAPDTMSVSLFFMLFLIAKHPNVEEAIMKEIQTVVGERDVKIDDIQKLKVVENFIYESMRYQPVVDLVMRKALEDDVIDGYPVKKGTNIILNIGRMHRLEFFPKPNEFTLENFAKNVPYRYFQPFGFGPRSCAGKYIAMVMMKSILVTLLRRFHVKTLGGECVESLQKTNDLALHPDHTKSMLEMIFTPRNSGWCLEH
# Assay: inhibition of [[…]-14C]testosterone conversion by placental microsomes, TLC autoradiography
# Assay type: biochemical
row,Structure (SMILES),pIC50
1,Cc1cccc(CN(c2ccc(C#N)cc2)n2cnnc2)c1 [meta-cetrozole],8.46
2,Cc1ccc(CN(c2ccc([N+](=O)[O-])cc2)n2cnnc2)cc1 [nitro-cetrozole],9.14
3,Cc1ccc(CN(c2ccc(C#N)cc2)n2cnnc2)cc1 [cetrozole],9.01
4,Cc1ccc(CN(c2ccc(C#N)cc2)n2cncn2)cc1 [iso-cetrozole],9.17
